Experiment [1] relates to Rattus norvegicus. Briefly: Natriuretic activity in rat assessed as per cage at 9 mg/kg, po. Format: functional.
The test system of experiment [2] is Canis familiaris. Briefly: Diuretic activity in dog assessed as […] urine volume at 5 mg/kg, iv relative to control. Format: functional, Canis lupus familiaris.
Experiment [3] deals with Pan troglodytes. Briefly: Natriuretic activity in chimpanzee assessed as change in Curate to Cinsulin ratio at 5 mg/kg, po. It counts as functional.
Experiment [4] deals with Pan troglodytes. The experiment in a line: Natriuretic activity in chimpanzee assessed as per min at 5 mg/kg, po. It counts as functional.
Experiment [5] concerns Canis familiaris. The experiment in a line: Diuretic activity in dog assessed as chloride level in urine per min at 5 mg/kg, iv relative to control. Format: functional, Canis lupus familiaris.
Experiment [6] has as its system Rattus norvegicus. Briefly: Natriuretic activity in rat assessed as per cage at 3 mg/kg, po. It counts as functional.
Experiment [7] relates to Rattus norvegicus. The experiment in a line: Natriuretic activity in rat assessed as per cage at 27 mg/kg, po. Format: functional.
Experiment [8] has as its system Canis familiaris. Briefly: Diuretic activity in dog assessed as sodium level in urine per min at 5 mg/kg, iv relative to control. It counts as functional, Canis lupus familiaris.
The subject of experiment [9] is Rattus norvegicus. Briefly: Natriuretic activity in rat assessed as per cage at 81 mg/kg, po. It counts as functional.
The test system of experiment [10] is Canis familiaris. The experiment in a line: Diuretic activity in dog assessed as sodium level in urine per min at 1 mg/kg, iv relative to control. Format: functional, Canis lupus familiaris.
In experiment [11] the test system is Canis familiaris. Briefly: Diuretic activity in dog assessed as potassium level in urine per min at 1 mg/kg, iv relative to control. It counts as functional, Canis lupus familiaris.
For experiment [12], the system named is Canis familiaris. The experiment in a line: Diuretic activity in dog assessed as […] urine volume at 1 mg/kg, iv relative to control. Format: functional, Canis lupus familiaris.
For experiment [13], the system named is Canis familiaris. Briefly: Diuretic activity in dog assessed as chloride level in urine per min at 1 mg/kg, iv relative to control. Format: functional, Canis lupus familiaris.

Turning to `CC1(c2ccc(O)cc2)Cc2cc(OCC(=O)O)c(Cl)c(Cl)c2C1=O` (configuration not stated), the Activity is 0.33 mEq in experiment [1]; 10 mL in [2]; 151 uEq in experiment [4]; 1460 µEq/min in experiment [5]; 0.17 mEq in [6]; 0.35 mEq in experiment [7]. Further, the Activity in experiment [8] was 1260 µEq/min. The Ratio in [3] stood at 0.02.

With `NS(=O)(=O)c1cc2c(cc1Cl)NCNS2(=O)=O` [HYDROCHLOROTHIAZIDE], the Activity was found to be 1.12 mEq in experiment [1]; 3 mL in experiment [2]; 144 uEq in experiment [4]; 156 µEq/min in experiment [5]; 166 µEq/min in experiment [8].

Turning to `Cc1c(OCC(=O)O)cc2c(c1Cl)C(=O)C(C)(c1ccccc1)C2` (configuration not stated), the Activity in experiment [1] came to 1.16 mEq; in [2], 4 mL; in experiment [4], 479 uEq; in experiment [5], 262 µEq/min; in [6], 1.35 mEq; in [9], 1.62 mEq. The results for the Activity in [7] and in [8] were 1.38 mEq and 226 µEq/min, respectively. The Ratio in experiment [3] was 0.31.

For the compound `CC1(c2ccc(Br)cc2)Cc2cc(OCC(=O)O)c(Cl)c(Cl)c2C1=O` (configuration not stated), the Activity turned out to be 0.29 mEq in experiment [1]; 3 mL in experiment [2]; 27 uEq in experiment [4]; 34 µEq/min in [5]; 0.21 mEq in [6]; 0.42 mEq in experiment [9]. The Activity in experiment [7] came to 0.27 mEq; in experiment [8], 96 µEq/min. For the same compound, the Ratio in experiment [3] amounted to 0.01.

As for `CC1(c2ccccc2)Cc2cc(OCc3nnn[nH]3)c(Cl)c(Cl)c2C1=O` (configuration not stated), the Activity is 0.17 mEq in experiment [1]; 3 mL in experiment [2]; 44 uEq in experiment [4]; 245 µEq/min in experiment [5]; 0.28 mEq in experiment [6]; 0.4 mEq in experiment [9]. Besides, the Activity in [7] was found to be 0.2 mEq; in [8], 279 µEq/min. Also, the Ratio in experiment [3] was 0.09.

Turning to `CC1(c2ccccc2)Cc2cc(OCC(=O)O)c(Cl)c(Cl)c2C1=O` (single isomer, unassigned; (-)) [INDACRINONE], the Activity stood at 1.21 mEq in experiment [1] (9 mg/kg); 743 uEq in experiment [4] (5 mg/kg); 360 µEq/min in experiment [5] (5 mg/kg); 1.01 mEq in experiment [6] (3 mg/kg); 2.71 mEq in [9] (81 mg/kg); 1.79 mEq in experiment [7] (27 mg/kg). The Activity in experiment [8] (5 mg/kg) was found to be 314 µEq/min. Moreover, the Ratio in experiment [3] (5 mg/kg) amounted to 0.28.

As to `CC1(c2ccc(N)cc2)Cc2cc(OCC(=O)O)c(Cl)c(Cl)c2C1=O` (configuration not stated), the Activity was 0.53 mEq in [1]; 10 mL in experiment [2]; 244 uEq in experiment [4]; 1180 µEq/min in experiment [5]; 0.33 mEq in experiment [6]; 1.34 mEq in experiment [9]. Moreover, the Activity was determined as 0.98 mEq in experiment [7] and 1130 µEq/min in experiment [8]. Further, in experiment [3], the Ratio worked out at 0.1.

As to `O=C(O)COc1cc2c(c(Cl)c1Cl)C(=O)C(c1ccccc1)(C1CCCC1)C2` (configuration not stated), the Activity in experiment [1] was 0.4 mEq; in experiment [2] it was 0.8 mL; in experiment [4] it was 47 uEq; in [5] it was 0.9 µEq/min; in experiment [6], 0.79 mEq; in [9] it was 0.35 mEq. Further, the Activity in experiment [7] came out at 0.31 mEq; in experiment [8] it was 11 µEq/min. Moreover, the Ratio in [3] is listed as 0.

As for `CC1(c2ccc(CN)cc2)Cc2cc(OCC(=O)[O-])c(Cl)c(Cl)c2C1=O.[Na+]` (configuration not stated), the Activity in experiment [1] turned out to be 0.17 mEq; in [2] it was 5 mL; in [4], 135 uEq; in experiment [5], 424 µEq/min; in [6] it was 0.18 mEq; in [9] it was 0.19 mEq. Besides, the Activity in [7] stood at 0.27 mEq; in [8], 497 µEq/min. Moreover, the Ratio in [3] came out at 0.

For the compound `CC1(c2ccc(F)cc2)Cc2cc(OCC(=O)O)c(Cl)c(Cl)c2C1=O` (configuration not stated), the Activity came out at 0.86 mEq in [1]; 3 mL in experiment [2]; 310 uEq in [4]; 362 µEq/min in experiment [5]; 1.01 mEq in [6]; 1.73 mEq in experiment [9]. For the same compound, the figures for the Activity in [7] and in experiment [8] were 1.23 mEq and 352 µEq/min, respectively. In addition, the Ratio in experiment [3] is 0.43.

`CC1(c2ccc(Cl)cc2)Cc2cc(OCC(=O)O)c(Cl)c(Cl)c2C1=O` (configuration not stated): the Activity in experiment [1] was 0.3 mEq; in [2], 6 mL; in experiment [4], 302 uEq; in experiment [5], 282 µEq/min; in experiment [6], 0.21 mEq; in [9], 0.37 mEq. The Activity in experiment [7] was 0.25 mEq; in [8], 305 µEq/min. Also, the Ratio in [3] is 0.25.

For `CC1(c2ccc(S(N)(=O)=O)cc2)Cc2cc(OCC(=O)O)c(Cl)c(Cl)c2C1=O` (configuration not stated), the Activity in experiment [1] turned out to be 0.29 mEq; in [4], 674 uEq; in experiment [6], 0.32 mEq; in experiment [7], 0.86 mEq. Moreover, the Ratio in [3] came out at 0.

As to `CC(=O)c1ccc(C2(C)Cc3cc(OCC(=O)O)c(Cl)c(Cl)c3C2=O)cc1` (configuration not stated), the Activity in experiment [1] was 0.62 mEq; in [4], 608 uEq; in experiment [6], 0.49 mEq; in experiment [9] it was 1.63 mEq; in experiment [7] it was 0.81 mEq. Also, the Ratio in experiment [3] was 0.08.

On to `NS(=O)(=O)c1cc(C(=O)O)c(NCc2ccco2)cc1Cl` [FUROSEMIDE], for which the Activity was 0.07 mEq in [1]; 1035 uEq in experiment [4]; 960 milliequivalent in experiment [10]; 141 milliequivalent in experiment [11]; 3 mL in experiment [12]; 2.44 mEq in experiment [9]. Besides, the Activity in [7] was found to be 1.25 mEq; in experiment [13], 1080 µEq/min. Further, the Ratio in [3] is -0.02.

For the compound `CC1(c2ccc([N+](=O)[O-])cc2)Cc2cc(OCC(=O)O)c(Cl)c(Cl)c2C1=O` (configuration not stated), the Activity in experiment [1] was found to be 1.02 mEq; in [2] it was 8 mL; in [4], 176 uEq; in experiment [5], 810 µEq/min; in experiment [6], 0.89 mEq; in experiment [9] it was 1.98 mEq. Besides, the results for the Activity in [7] and in experiment [8] were 1.68 mEq and 751 µEq/min, respectively. Further, in experiment [3], the Ratio amounted to 0.03.

In the case of `CCCN(CCC)S(=O)(=O)c1ccc(C(=O)O)cc1` [PROBENECID], the Ratio in experiment [3] is reported as 0.05.

As for `COc1ccc(C2(C)Cc3cc(OCC(=O)O)c(Cl)c(Cl)c3C2=O)cc1` (configuration not stated), the Activity is 0.76 mEq in experiment [1], 459 uEq in experiment [4], 0.45 mEq in experiment [6] and 1.29 mEq in [7]. The Ratio in experiment [3] is recorded as 0.01.

`CC1(c2ccccc2)Cc2cc(OCC(=O)O)c(Cl)c(Cl)c2C1=O` (single isomer, unassigned; (+)) [INDACRINONE]: the Activity was determined as 0.38 mEq in experiment [1] (9 mg/kg); 4 mL in [2] (5 mg/kg); 221 uEq in [4] (5 mg/kg); 304 µEq/min in [5] (5 mg/kg); 0.77 mEq in [6] (3 mg/kg); 0.88 mEq in experiment [9] (81 mg/kg). Besides, the values for the Activity in experiment [7] (27 mg/kg) and in experiment [8] (5 mg/kg) were 0.71 mEq and 221 µEq/min, respectively. For the same compound, the Ratio in [3] (5 mg/kg) stood at 0.16.

`CC1(c2ccccc2)Cc2cc(OCC(=O)O)c(Cl)c(Cl)c2C1=O` (racemic) [INDACRINONE]: the Activity in [1] (9 mg/kg) came to 0.97 mEq; in experiment [2] (5 mg/kg) it was 8 mL; in [4] (5 mg/kg), 409 uEq; in experiment [5] (5 mg/kg) it was 1010 µEq/min; in [6] (3 mg/kg), 0.86 mEq; in experiment [9] (81 mg/kg), 1.89 mEq. In addition, the Activity in [7] (27 mg/kg) is 1.29 mEq; in experiment [8] (5 mg/kg) it was 920 µEq/min. Moreover, the Ratio in experiment [3] (5 mg/kg) is listed as 0.38.

Regarding `CCC1(c2ccccc2)Cc2cc(OCC(=O)O)c(Cl)c(Cl)c2C1=O` (configuration not stated), the Activity in experiment [1] is 1.15 mEq; in [2] it was 4 mL; in experiment [4] it was 369 uEq; in experiment [5], 396 µEq/min; in [6], 0.75 mEq; in experiment [9], 1.34 mEq. Moreover, the Activity came out at 1.19 mEq in [7] and 431 µEq/min in experiment [8]. Also, in [3], the Ratio is recorded as 0.12.

For `O=C(O)COc1cc2c(c(Cl)c1Cl)C(=O)C(c1ccccc1)(c1ccccc1)C2`, the Activity came to 0.93 mEq in experiment [1]; 2 mL in experiment [2]; 19 uEq in experiment [4]; 5 µEq/min in experiment [5]; 0.4 mEq in [6]; 0.95 mEq in experiment [9]. In addition, the Activity in experiment [7] was 1.09 mEq; in experiment [8] it was 44 µEq/min. In addition, the Ratio in experiment [3] came out at 0.03.

On to `CC1(c2cccs2)Cc2cc(OCC(=O)O)c(Cl)c(Cl)c2C1=O` (configuration not stated), for which the Activity worked out at 0.79 mEq in experiment [1]; 5 mL in [2]; 416 uEq in experiment [4]; 598 µEq/min in experiment [5]; 0.46 mEq in [6]; 1.77 mEq in [9]. Moreover, the Activity came to 1.41 mEq in [7] and 503 µEq/min in experiment [8]. Moreover, the Ratio in experiment [3] stood at 0.47.

Turning to `O=C(O)COc1cc2c(c(Cl)c1Cl)C(=O)C1(c3ccccc3)CCCCC21` (configuration not stated), the Activity in experiment [1] is 0.65 mEq; in experiment [2], 4 mL; in experiment [4], 137 uEq; in experiment [5] it was 211 µEq/min; in [6] it was 0.47 mEq; in experiment [9], 1.17 mEq. Moreover, the Activity is 0.86 mEq in experiment [7] and 276 µEq/min in experiment [8]. Further, in [3], the Ratio is 0.08.

Source of the values: ChEMBL document CHEMBL3243997, “(Acylaryloxy)acetic acid diuretics. 2. (2-Alkyl-2-aryl-1-oxo-5-indanyloxy)acetic acids” (1978).
